# Experiments:
# [1] = tested on: Meloidogyne incognita second-stage juveniles (J2); test: M. incognita assay with previously hatched J2 immersed in test solutions; conditions: in vivo
# Procedure: Two types of assays were used to investigate activity against M. incognita: i) eggs were immersed in solutions of the test compounds, and ii) second-stage juveniles (J2) previously hatched from eggs were immersed in the test solutions. These assays were conducted with procedures similar to those in Meyer, et al. (J. Nematol. 2006, 38, 333). M. incognita race 1 (originally isolated in 2013 from a field in Maryland) was grown in the greenhouse on pepper (Capsicum annuum L.) cultivar PA-136. Egg masses were hand-picked from plant roots, rinsed three times with sterile distilled H2O, and agitated in 0.6% NaClO for 3.5 minutes to separate and surface-sterilize eggs. The eggs were rinsed in sterile distilled H2O and stored overnight at 4° C. before use in egg immersion assays. To collect J2 for direct immersion into the test compounds, sterilized eggs were placed into a hatching chamber made with a Spectra/Mesh Nylon Filter (openings 25 μm in diameter; Spectrum Laboratories Inc., Rancho Dominguez, Calif., USA) in an autoclaved dish. J2 that passed through the filter within 3 days were used immediately for assays.
# The assays were conducted in 96-well polystyrene plates. For the assays with immersed eggs, each well received approximately 50 eggs in 35 μl of sterile deionized water (SDW). For assays with previously hatched J2, a suspension of approximately 50 J2 in 35 μl of SDW was placed into each well. Each well then received 165 μl of treatment or control. The solvent used to dissolve the test chemicals was a 1:1:1 mixture referred to herein as CTD: equal parts Cremophor® EL Castor Oil (BASF Corporation, Vandalia, Ill., USA), Tween 80® (Sigma-Aldrich, St. Louis, Mo., USA), and DMSO (Sigma-Aldrich). A high and low rate of each compound was tested. After addition to the nematode suspensions in the wells, the low and high rates were 83.3 and 166.7 μg/ml of each test compound, respectively, dissolved in 0.5% and 1.0% of each of the three combined solvents. Controls were CTD equivalent to the low and high rates, and SDW. Because of the large number of treatments, the test compounds were divided into two groups for the egg immersion assays. The compounds tested in the egg immersion Assay 1 were 3, 6a, 6e, 6f, 6g, 6n, 7a, 7c, 7e, 7f, 7n, 11, 12, 16, and 17. The compounds tested in the egg immersion Assay 2 were 6b, 6h, 6i, 6j, 6k, 6l , 7b, 7g, 7h, 7i, 7j, 7k, 7l, and 7m (data not shown). Test compounds used for assays with previously hatched J2 were selected based on results with the egg assays. […]
# Each polystyrene culture plate was covered with a plastic adhesive sheet (Excel Scientific, Inc., Victorville, Calif., USA) and incubated at 25° C. […] In egg immersion assays, total numbers of hatched J2, and numbers of mobile and immobile J2, were counted after 2 and 7 days incubation in the test compounds. In the first assay with previously hatched J2, the numbers of mobile and immobile J2 were counted after 1 and 2 days incubation, the treatments removed and replaced with a SDW rinse, and 2 days later the mobile vs. immobile J2 counted again. […]
# Data from the M. incognita assays were analyzed with the statistical package JMP 11.2.0 (SAS Institute, Cary, N.C., USA). Differences among numbers of hatched J2 in each treatment, and among percentage of mobile J2 per treatment (number mobile J2/total J2×100), were determined by the ANOVA, and means were compared using Tukey Kramer's adjustment for multiple comparisons (P<0.05). […]
# [2] = tested on: C. gloeosporioides; test: Direct bioautography, antifungal; assay type: cell-based, Colletotrichum gloeosporioides; conditions: 2 mM, 4 μl spotted (2 μl of the positive controls), average of 2 assays; for zone of inhibition at 2000 µM: Colletotrichum gloeosporioides, read-out: zones of inhibition
# Procedure: (§1) The analogs were tested for activity against Colletotrichum acutatum SIMMONDS, C. fragariae BROOKS, and C. gloeosporioides (PENZ) PENZ & SACC. in Penz., using a direct bioautography method as previously described by Tabanca et al. (Nat. Prod. Commun. 2008, 3, 1073) and Wang, et al. (J. Agric. Food Chem. 2013, 61, 4551). Technical grade commercial fungicide standards benomyl, cyprodinil, azoxystrobin, and captan were used at 0.9-1.61 μg/μl concentrations in 95% EtOH. After sample application, each TLC plate was subsequently sprayed with a spore suspension (3.0×10^5 spores/ml) of the fungus of interest and incubated in a moisture chamber for 4 days at 26° C. with a 12 hour photoperiod. Clear zones of fungal growth inhibition on the TLC plate indicated the presence of antifungal constituents in each extract or pure compound. The test compounds were prepared at 2 mM soln. in 95% EtOH, and 4 μl were spotted on the plates (2 μl of the positive controls).
# [3] = tested on: Colletotrichum acutatum; test: Direct bioautography, antifungal; assay type: cell-based; conditions: 2 mM, 4 μl spotted (2 μl of the positive controls), average of 2 assays; for zone of inhibition at 2000 µM: Colletotrichum acutatum, read-out: zones of inhibition
# Procedure: as §1
# [4] = tested on: C. fragariae; test: Direct bioautography, antifungal; assay type: cell-based, Colletotrichum fragariae; conditions: 2 mM, 4 μl spotted (2 μl of the positive controls), average of 2 assays; for zone of inhibition at 2000 µM: Colletotrichum fragariae, read-out: zones of inhibition
# Procedure: as §1
# [5] = tested on: Cryptococcus neoformans ATCC 90113; test: Antimicrobial microplate assay (modified CLSI); assay type: cell-based; conditions: Cryptococcus neoformans, ATCC90113; Cr. neoformans
# Procedure: (§2) All organisms were obtained from the American Type Culture Collection (ATCC; Manassas, Va., USA) and included the fungi Cryptococcus neoformans ATCC 90113 and the bacteria Staphylococcus aureus ATCC 29213, methicillin-resistant S. aureus ATCC 33591 (MRSA), and Mycobacterium intracellulare ATCC 23068. All organisms were tested using modified versions of the CLSI (formerly NCCLS) methods. For all organisms excluding My. intracellulare, optical density was used to monitor growth. Medium supplemented with 5% AlamarBlue® (BioSource International, Camarillo, Calif., USA) was utilized for growth detection of My. intracellulare. Samples (dissolved in DMSO) were serially diluted in 20% DMSO/saline and transferred (10 μl) in duplicate to 96-well flat-bottom microplates. Inocula were prepared by correcting the OD630 of microbe suspensions in Sabouraud Dextrose for Cr. neoformans, cation-adjusted Mueller-Hinton (Difco) at pH 7.3 for Staphylococcus spp., and 5% AlamarBlue® (BioSource International) in Middlebrook 7H9 broth with OADC enrichment, pH=7.0 for My. intracellulare, to afford an assay volume of 200 μl and final target inocula of: Cr. neoformans.: b 1.5×10^3, My. intracellulare: 2.0×10^6, and Staphylococcus spp.,: 5.0×10^5 CFU/ml. Final sample test concentrations were 1/100th the DMSO stock concentration. Drug controls (Ciprofloxacin (ICN Biomedicals, Ohio, USA) for bacteria and Amphotericin B (ICN Biomedicals) for fungi) were included in each assay. All organisms were read at either 530 nm using the Biotek Powerwave XS plate reader (Bio-Tek Instruments, VT) or 544ex1590em (My. intracellulare) using the Polarstar Galaxy Plate Reader (BMG LabTechnologies, Germany) before and after incubation: Staphylococcus spp. at 35° C. for 16-20 h, Cr. neoformans at 35° C. for 70-74 h, and My. intracellulare at 37° C. and 10% CO2 for 70-74 h. IC50 Values (concentrations that afford 50% inhibition relative to controls) werecalculated using XLfit 4.2 software (IDBS, Alameda, Calif.) using fit model 201.
# [6] = tested on: methicillin-resistant S. aureus ATCC 33591 (MRSA); test: Antimicrobial microplate assay (modified CLSI); assay type: cell-based; conditions: Staphylococcus aureus
# Procedure: as §2, with “Drug controls (Ciprofloxacin (ICN Biomedicals, Ohio, USA) for bacteria and Amphotericin B (ICN Biomedicals) for fungi) were included in each assay.” left out
# [7] = tested on: Staphylococcus aureus ATCC 29213; test: Antimicrobial microplate assay (modified CLSI); assay type: cell-based; conditions: ATCC29213, S. aureus
# Procedure: as §2, with “Drug controls (Ciprofloxacin (ICN Biomedicals, Ohio, USA) for bacteria and Amphotericin B (ICN Biomedicals) for fungi) were included in each assay.” left out
# [8] = tested on: Mycobacterium intracellulare ATCC 23068; test: Antimicrobial microplate assay (modified CLSI, AlamarBlue); assay type: cell-based; conditions: ATCC23068, My. intracellulare
# Procedure: as §2, with “Drug controls (Ciprofloxacin (ICN Biomedicals, Ohio, USA) for bacteria and Amphotericin B (ICN Biomedicals) for fungi) were included in each assay.” left out
smiles,measurement,setting,value
"COc1cccc(/C=C/c2cc(OC)c(C)c(OC)c2)c1 [Compound 6b, (E)-1,3-dimethoxy-5-(3-methoxystyryl)-2-methylbenzene]",effect on mobility of J2 previously hatched in water and immersed directly (in words),[1],only 6g and 7k had an effect on J2 mobility
"CO/C=C(/C(=O)OC)c1ccccc1Oc1cc(Oc2ccccc2C#N)ncn1 [Azoxystrobin, azoxystrobin]",zones of inhibition,[2],17.5 mm
same,zones of inhibition,[3],15 mm
same,zones of inhibition,[4],17.5 mm
"COc1cc(/C=C/c2ccc(O)cc2)cc(OC)c1C [Compound 16, (E)-4-(3,5-dimethoxy-4-methylstyryl)phenol]",IC50,[5],5.22 µM
same,MIC,[5],9.25 µM
same,IC50,[6],43.7 µM
same,MIC,[6],74 µM
same,IC50,[7],20.4 µM
same,MIC,[7],74 µM
same,IC50,[8],34 µM
same,MIC,[8],74 µM
"O=C1C2CC=CCC2C(=O)N1SC(Cl)(Cl)Cl (stereo not drawn) [Captan, captan]",zone of inhibition at 2000 µM,[2],18.5 mm
same,zone of inhibition at 2000 µM,[3],11.5 mm
same,zone of inhibition at 2000 µM,[4],18.5 mm
"CCCCNC(=O)n1c(NC(=O)OC)nc2ccccc21 [Benomyl, benomyl]",zone of inhibition at 2000 µM,[2],20 mm
same,zone of inhibition at 2000 µM,[3],17 mm
same,zone of inhibition at 2000 µM,[4],20 mm

# Source: patent US20190059368A1, “3,5-DIMETHOXYSTILBENE ANALOGS AND USES THEREOF” (The United States of America, as represented by the …, priority 2017, published 2019)
